“Also recorded” adds a separate entry of the source. No end group written: not given here.

Data on two sequences can be found in patent US20130203649A1, “INHIBITORS OF TLR SIGNALING BY TARGETING TIR DOMAIN INTERFACES” (UNIVERSITY OF MARYLAND, BALTIMORE, priority 2012, published 2013).

Type in all cases: cell-based
Assay [1] has as its target T1, TLR2/TLR1 heterodimer (Mus musculus, UniProt Q9QUN7).
T1 construct: endogenous in cells; host or cells: thioglycollate-elicited mouse peritoneal macrophages
Briefly: P3C-induced cytokine mRNA expression in mouse macrophages. The note with it: P3C 500 ng/ml, 1 h. An excerpt:
(§1) Total cellular RNA was isolated using Tripure from Roche (San Francisco, Calif.) following manufacture's protocol. RNA was then reverse transcribed using AMV Reverse Transcriptase from Promega (Madison, Wis.) with poly-T priming as per manufacturer's directions. cDNA was then quantified by real-time PCR using Applied Biosystems Fast SYBR Green PCR Master Mix and an ABI Prism 7500HT cycler. Primers used for detection: hypoxanthine phosphoribosyltransferase (HPRT) (forward: […] (SEQ ID NO:51), reverse: […] (SEQ ID NO:52)), TNFα (forward: […] (SEQ ID NO:53), reverse: […] (SEQ ID NO:54)), IL-1β (forward: […] (SEQ ID NO:55), reverse: […] (SEQ ID NO:56)), IFNβ (forward: […] (SEQ ID NO:57), reverse: CTCGGACCACCATCCAGG (SEQ ID NO:58)) and RANTES (forward: […] (SEQ ID NO:59), reverse: […] (SEQ ID NO:60)). The primers were designed using Primer Express 2.0 (Applied Biosystems). Using HPRT as reference, the ΔCt method was used to calculate relative gene expression. One-way ANOVA was preformed, as well as Dunnett's multiple comparison post hoc test with a p≦0.01 selected as the level of significance.
(§2) Protein-free Escherichia coli K235 LPS was used at final concentration of 10 ng/ml to stimulate cells. S-[2,3-bis(palmitoyloxy)-(2-RS)-propyl]-N-palmitoyl-(R)-Cys-Ser-Lys4-OH (P3C) and S-[2,3-bis(palmitoyloxy)-(2-RS)-propyl]-[R]-Cys-Ser-Lys4-OH (P2C) were purchased from EMC microcollections GmbH (Tubingen, Germany) and used for cell stimulation at 500 and 50 ng/ml, respectively. Phospho-ERK1/2 and phospho-JNK1/2 rabbit Abs were obtained from Cell Signaling Technology, Inc. β-actin rabbit Ab were from SantaCruz Biotechnology, Inc.
(§3) Because of the role TRAP plays in TLR2 signaling, TIRAP TIR-derived decoy peptide effects on TLR2-induced cytokine mRNA expression were examined. Thioglycollate-elicited mouse macrophages were stimulated either by P2C, an agonist that induces signaling through TLR2/TLR6 heterodimerization, or P3C, a TLR2/TLR1 agonist, and effects of TIRAP TR-derived decoy peptides on induction of cytokine mRNA were examined. […] To confirm the inhibitory effect of TR3 and TR6 on P3C-induced signaling, IL-6 and TNF-α concentration was measured in macrophage supernatants collected 5 h after stimulation of cells with P3C. […] Concordantly, both TR3 and TR6 diminished the P3C-induced ERK phosphorylation (FIG. 3D).
(§4) C57BL/6J mice were obtained from The Jackson Laboratory (BarHarbor, Me.). Harvesting, culturing, and stimulation of peritoneal macrophages were described in previous publications (1, 18, 19). Escherichia coli K235 LPS (34) was used at the final concentration of 100 ng/ml. The 2,3-bis(palmitoyloxy)-(2-RS)-propyl-N-palmitoyl-(R)-Cys-Ser-Lys4-OH (P3C) and S[2,3-bis(palmitoyloxy)-(2-RS)-propyl]-[R]-Cys-Ser-Lys4-OH (P2C) (EMC Microcollections, Tubingen, Germany) were used at 500 and 50 ng/ml, respectively. Oligonucleotide (ODN) 1668 and low m.w. polyinosinic-polycytidylic acid [poly(I:C)] in complex with LyoVec were obtained from InvivoGen; these agonists were used at 2.5 μM and 400 ng/ml, respectively.

For assay [2], the target named is T1, TLR2/TLR1 heterodimer. Kind of assay: P3C-induced IL-6 and TNF-α secretion by macrophages (ELISA). The note with it: supernatants 5 h after P3C 500 ng/ml. On the procedure:
(§5) FIG. 3. Effect of TIRAP decoy peptides on TLR2 signaling. Thioglycollate-elicited macrophages were incubated in the presence of 20 (black columns) or 40 μM (open columns) of a decoy peptide for 30 min prior to stimulation with P3C (500 ng/ml) (A and C) or P2C (50 ng/ml) (B). Cytokine mRNA expression was measured 1 h after TLR2 stimulation and is normalized to the expression of HPRT gene. C. IL-6 and TNF-α were measured by ELISA in macrophage supernatants collected 5 h after P3C (500 ng/ml) stimulation. D. Peptides TR3 and TR6 inhibit ERK activation induced by TLR2 agonist, P3C. ERK phosphorylation was measured by Western analysis in primary macrophage stimulated by P3C for 30 min.
Cytokine secretion was measured in supernatant samples collected at 6 or 24 h time points and stored at −80° C. Samples were analyzed by a multiplex assay at the University of Maryland Baltimore Cytokine Core Facility using a Luminex 100 reader and Softmax Pro software, or by ELISA kits for mouse IL-6 or TNF-α from BioLegend (San Diego, Calif.) and LT-4000 microplate reader.
(§6) Because of the role TRAP plays in TLR2 signaling, TIRAP TIR-derived decoy peptide effects on TLR2-induced cytokine mRNA expression were examined. […] To confirm the inhibitory effect of TR3 and TR6 on P3C-induced signaling, IL-6 and TNF-α concentration was measured in macrophage supernatants collected 5 h after stimulation of cells with P3C. […]
On the technique in general: An ELISA detects its analyte on a solid surface through an enzyme-linked reagent.

Assay [3] has as its target T1, TLR2/TLR1 heterodimer. Kind of assay: P3C-induced ERK phosphorylation in primary macrophages (Western analysis). The following applies: P3C 30 min. On the procedure: as §5
Cellular protein extracts were isolated by addition of 240 μL per well cold lysate buffer (20 mM Tris, 50 mM NaCl, 1.5 mM MgCl2, 2 mM EDTA, 10 mM NaF, 2 Mm DTT, 1 mM Na3VO4, 1% Triton). Cells were incubated with lysis solution for 30 min on agitator at 4° C. […] After quantification using BioRad protein assay, protein samples were added to Laemmli buffer and then boiled for 10 min. […]
as §6

The target in assay [4] is T2, TLR2/TLR6 heterodimer (Mus musculus, UniProt Q9QUN7).
T2 construct: endogenous in cells; host or cells: thioglycollate-elicited mouse peritoneal macrophages
Kind of assay: P2C-induced cytokine mRNA expression in mouse macrophages. The following applies: P2C 50 ng/ml, 1 h.
Source text: as §1, §2, §3, §4

T1 sequence (Q9QUN7 25-784, one chain of several): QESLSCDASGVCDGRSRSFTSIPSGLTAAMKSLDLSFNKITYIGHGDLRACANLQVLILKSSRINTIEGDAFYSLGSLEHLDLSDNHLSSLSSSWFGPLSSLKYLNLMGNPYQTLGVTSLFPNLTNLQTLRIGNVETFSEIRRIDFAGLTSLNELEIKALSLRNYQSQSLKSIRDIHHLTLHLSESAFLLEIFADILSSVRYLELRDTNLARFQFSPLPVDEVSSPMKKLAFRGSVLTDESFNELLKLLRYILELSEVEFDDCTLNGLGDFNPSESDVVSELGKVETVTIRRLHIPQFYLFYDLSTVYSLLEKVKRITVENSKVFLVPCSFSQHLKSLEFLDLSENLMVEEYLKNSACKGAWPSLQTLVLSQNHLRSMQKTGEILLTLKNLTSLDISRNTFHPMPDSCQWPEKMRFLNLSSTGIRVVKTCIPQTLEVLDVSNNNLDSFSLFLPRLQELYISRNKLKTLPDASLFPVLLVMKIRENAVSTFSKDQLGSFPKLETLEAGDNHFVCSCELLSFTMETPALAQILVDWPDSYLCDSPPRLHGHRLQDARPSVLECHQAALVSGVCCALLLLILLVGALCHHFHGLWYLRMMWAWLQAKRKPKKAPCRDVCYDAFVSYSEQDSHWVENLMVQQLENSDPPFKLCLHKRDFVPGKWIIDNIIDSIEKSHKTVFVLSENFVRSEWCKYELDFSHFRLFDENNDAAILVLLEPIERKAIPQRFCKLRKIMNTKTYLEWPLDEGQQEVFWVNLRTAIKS
T2 sequence (Q9QUN7 25-784, one chain of several): as above

Turning to RQIKIWFQNRRMKWKKEGSQASLRCF [TR3], the “P3C-induced TNFα and IL-1β mRNA” value is “inhibited” in assay [1] (20 μM peptide) and “profoundly inhibited” in assay [1] (40 μM peptide). Also, in assay [2], the “P3C-induced IL-6 and TNF-α secretion” value is listed as “profoundly inhibited”. Also, the “P3C-induced ERK phosphorylation” value in assay [3] is reported as “diminished; also recorded: inhibit”. Moreover, the “P2C-induced TNFα and IL-1β mRNA” value in assay [4] (20 μM peptide) is “significantly less”; in assay [4] (40 μM peptide), “did not affect significantly”.
Consider RQIKIWFQNRRMKWKKPGFLRDPWCKYQML [TR6], for which the “P3C-induced TNFα and IL-1β mRNA” value in assay [1] (20 μM peptide) was “inhibited”; in assay [1] (40 μM peptide) it was “profoundly inhibited”. The “P3C-induced IL-6 and TNF-α secretion” value in assay [2] is “profoundly inhibited”. The “P3C-induced ERK phosphorylation” value in assay [3] is given as “diminished; also recorded: inhibit”. The results for the “P2C-induced TNFα and IL-1β mRNA” value in assay [4] (20 μM peptide) and in assay [4] (40 μM peptide) were “significantly less” and “did not affect significantly”, respectively.
